These results are taken from patent US5614533A, “Substituted pipecolinic acid derivatives as HIV protease inhibitors” (Bio-Mega/Boehringer Ingelheim Research, Inc., priority 1994, dated 1997).

One test concerns the target T1, HIV protease (Human immunodeficiency virus type 1 group M subtype B, UniProt P04585).
T1 construct: HIV protease was expressed in E. coli; made in house; host or cells: E. coli (plasmid pBRT1 prt+)
In words: Recombinant HIV Protease HPLC Assay. The test is classed as biochemical. The conditions noted are these: 37°, 30 min, pH 5.5. The gist of the method: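 Recombinant protease from E. coli (pBRT1 prt+ construct), purified and diluted 1/38 for use, cleaves the decapeptide substrate VSFNFPQITL-NH2, containing an HIV polyprotein cleavage site. Inhibition of cleavage is monitored by HPLC.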

Test [1] has as its system HIV (H9/HTLV-IIIB) in C8166 cells. The test is described as follows: plaque assay: inhibition of syncytia formation in HIV-infected C8166 cells. The test is classed as cell-based. The following applies: Human immunodeficiency virus 1, IIIB, 72 h, 50% inhibition of syncytia formation. The method in brief: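 C8166 cells (5×10^4/well) infected with 50× TCID50 H9/HTLV-IIIB in HEPES-buffered RPMI 1640 (pH 7.2), 10% FCS, with test compound in triplicate; 72 h at 37°, 5% CO2. Syncytia centers counted by phase-contrast microscopy; EC50 from percent inhibition versus serial dilutions by non-linear regression.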

For orientation: IC50 means the point on the concentration scale where inhibition reaches its midpoint. By EC50 is commonly meant the concentration giving half of the maximal effect. Low values mean higher potency in that assay, high ones lower potency in that assay. As to `Cc1ccnc(S[C@@H]2CCN(C[C@@H](O)[C@H](Cc3ccccc3)NC(=O)[C@@H](NC(=O)c3ccc4ccccc4n3)C(C)C)[C@H](C(=O)NC(C)(C)C)C2)n1` [Table V, entry 23, N-tert-butyl-1-{2(R)-hydroxy-4-phenyl-3(S)-{{N-(2-quinolylinylcarbonyl)valyl}amino}butyl}-4(R)-{(4-methyl-2-pyrimidinyl)thio}piperidine-2(S)-carboxamide], at HIV protease (Table V), the IC50 stood at 2.8 nM. Moreover, in test [1] (Table V), a half-maximal response (EC50) required 16 nM.
On the same counts, the results for `CC(C)[C@H](NC(=O)c1ccc2ccccc2n1)C(=O)N[C@@H](Cc1ccccc1)[C@H](O)CN1CC[C@@H](OCc2cccnc2)C[C@H]1C(=O)NC(C)(C)C` [Table V, entry 24, N-tert-butyl-1-{2(R)-hydroxy-4-phenyl-3(S)-{{N-(2-quinolylinylcarbonyl)valyl}amino}butyl}-4(R)-(3-pyridinylmethoxy)piperidine-2(S)-carboxamide] are 3.7 nM and 53 nM.
For the compound `CC(C)(C)NC(=O)[C@@H]1C[C@H](Sc2ccccc2)CCN1C[C@@H](O)[C@H](Cc1ccccc1)NC(=O)[C@@H](NC(=O)c1ccc2ccccc2n1)C(C)(C)C` [Table VI, entry 1, N-tert-butyl-1-{2(R)-hydroxy-4-phenyl-3(S)-{{N-(2-quinolylinylcarbonyl)tert-butylglycyl}amino}butyl}-4(R)-(phenylthio)piperidine-2(S)-carboxamide], the half-inhibitory concentration (IC50) on HIV protease (Table VI) worked out at 3 nM. The concentration for a half-maximal effect (EC50) in test [1] (Table VI) was 12 nM.
The matching figures for `Cc1cc(C)nc(S[C@@H]2CCN(C[C@@H](O)[C@H](Cc3ccccc3)NC(=O)[C@H](CC(N)=O)NC(=O)c3ccc4ccccc4n3)[C@H](C(=O)NC(C)(C)C)C2)n1` [Table VI, entry 2, N-tert-butyl-1-{2(R)-hydroxy-4-phenyl-3(S)-{{N-(2-quinolylinylcarbonyl)asparaginyl}amino}butyl}-4(R)-{(4,6-dimethyl-2-pyrimidinyl)}thiopiperidine-2(S)-carboxamide]: 2.2 nM and 42 nM.
As to `CC(C)(C)NC(=O)[C@@H]1C[C@H](Sc2ncccn2)CCN1C[C@@H](O)[C@H](Cc1ccccc1)NC(=O)[C@H](CC(N)=O)NC(=O)c1ccc2ccccc2n1` [Table VI, entry 3, N-tert-butyl-1-{2(R)-hydroxy-4-phenyl-3(S)-{{N-(2-quinolylinylcarbonyl)asparaginyl}amino}butyl}-4(R)-(2-pyrimidinylthio)piperidine-2(S)-carboxamide], the 50% inhibitory concentration (IC50) on HIV protease (Table VI) amounted to 2.1 nM. The same compound had an EC50 in test [1] (Table VI) of 60 nM.
On the same counts, the results for `CNC(=O)C[C@H](NC(=O)c1ccc2ccccc2n1)C(=O)N[C@@H](Cc1ccccc1)[C@H](O)CN1CC[C@@H](Oc2ccccc2)C[C@H]1C(=O)NC(C)(C)C` [Table VI, entry 4, N-tert-butyl-1-{2(R)-hydroxy-4-phenyl-3(S)-{{N-(2-quinolylinylcarbonyl)(N^4-methyl)asparaginyl}amino}butyl}-4(R)-phenoxypiperidine-2(S)-carboxamide] are 3.7 nM and 13 nM.
Turning to `CC(C)(C)NC(=O)[C@@H]1C[C@H](SCc2cccnc2)CCN1C[C@@H](O)[C@H](Cc1ccccc1)NC(=O)[C@@H](NC(=O)c1ccc2ccccc2n1)C(C)(C)C` [Table VI, entry 5, N-tert-butyl-1-{2(R)-hydroxy-4-phenyl-3(S)-{{N-(2-quinolylinylcarbonyl)tert-butylglycyl}amino}butyl}-4(R)-{(3-pyridinylmethyl)thio}piperidine-2(S)-carboxamide], the IC50 on HIV protease (Table VI) came out at 2.2 nM. Also, a half-maximal effect in test [1] (Table VI) (EC50) was put at 8 nM.
On the same counts, the results for `C[C@@H](O)[C@H](NC(=O)c1ccc2ccccc2n1)C(=O)N[C@@H](Cc1ccccc1)[C@H](O)CN1CC[C@@H](S(=O)(=O)c2ccccc2)C[C@H]1C(=O)NC(C)(C)C` [Table VI, entry 6, N-tert-butyl-1-{2(R)-hydroxy-4-phenyl-3(S)-{{N-(2-quinolylinylcarbonyl)threonyl}amino}butyl}-4(R)-(phenylsulfonyl)piperidine-2(S)-carboxamide] are 2.6 nM and 61 nM.
The matching figures for `CC(C)(C)NC(=O)[C@@H]1C[C@H](S(=O)(=O)c2ccncc2)CCN1C[C@@H](O)[C@H](Cc1ccccc1)NC(=O)[C@@H](NC(=O)c1ccc2ccccc2n1)C(C)(C)C` [Table VI, entry 7, N-tert-butyl-1-{2(R)-hydroxy-4-phenyl-3(S)-{{N-(2-quinolylinylcarbonyl)tert-butylglycyl}amino}butyl}-4(R)-(4-pyridinylsulfonyl)piperidine-2(S)-carboxamide]: 2.1 nM and 29 nM.
On the same counts, the results for `CC(C)(C)NC(=O)[C@@H]1C[C@H](S(=O)(=O)c2ccccn2)CCN1C[C@@H](O)[C@H](Cc1ccccc1)NC(=O)[C@@H](NC(=O)c1ccc2ccccc2n1)C(C)(C)C` [Table VI, entry 8, N-tert-butyl-1-{2(R)-hydroxy-4-phenyl-3(S)-{{N-(2-quinolylinylcarbonyl)tert-butylglycyl}amino}butyl}-4(R)-(2-pyridinylsulfonyl)piperidine-2(S)-carboxamide] are 2.9 nM and 44 nM.
As for `Cc1cccc(C)c1OCC(=O)N[C@@H](Cc1ccccc1)[C@H](O)CN1CC[C@@H](SCc2cccnc2)C[C@H]1C(=O)NC(C)(C)C` [Table VII, entry 1, N-tert-Butyl-1-{3(S)-{{(2,6-dimethylphenoxy)acetyl}amino}-2(R)-hydroxy-4-phenylbutyl}-4(R)-{(3-pyridinylmethyl)thio}piperidine-2(S)-carboxamide], the IC50 at HIV protease (Table VII) is 2.7 nM. The compound also registered an EC50 in test [1] (Table VII) of 35 nM.
The matching figures for `Cc1cc(C)c(OCC(=O)N[C@@H](Cc2ccccc2)[C@H](O)CN2CC[C@@H](Sc3ccncc3)C[C@H]2C(=O)NC(C)(C)C)c(C)c1` [Table VII, entry 2, N-tert-butyl-1-{3(S)-{{(2,4,6-trimethylphenoxy)acetyl}amino}-2(R)-hydroxy-4-phenylbutyl}-4(R)-(4-pyridinylthio)piperidine-2(S)-carboxamide]: 3.7 nM and 47 nM.
Turning to `Cc1cccc(C)c1OCC(=O)N[C@@H](Cc1ccccc1)[C@H](O)CN1CC[C@@H](Sc2ccncc2)C[C@H]1C(=O)NC(C)(C)C` [Table VII, entry 4, N-tert-butyl-1-{3(S)-{{(2,6-dimethylphenoxy)acetyl}amino}-2(R)-hydroxy-4-phenylbutyl}-4(R)-(4-pyridinylthio)piperidine-2(S)-carboxamide], the IC50 at HIV protease (Table VII) is 3.1 nM. This compound came in with a concentration for a half-maximal effect (EC50) in test [1] (Table VII) of 20 nM.
The matching figures for `Cc1ccccc1OCC(=O)N[C@@H](Cc1ccccc1)[C@H](O)CN1CC[C@@H](Sc2ccncc2)C[C@H]1C(=O)NC(C)(C)C` [Table VII, entry 5, N-tert-butyl-1-{3(S)-{{(2-methylphenoxy)acetyl}amino}-2(R)-hydroxy-4-phenylbutyl}-4(R)-(4-pyridinylthio)piperidine-2(S)-carboxamide]: 6.2 nM and 140 nM.
On the same counts, the results for `CC(C)(C)NC(=O)[C@@H]1C[C@H](Sc2ccncc2)CCN1C[C@@H](O)[C@H](Cc1ccccc1)NC(=O)c1ccc(Cl)cc1Cl` [Table VII, entry 6, N-tert-butyl-1-{3(S)-{{(2,4-dichlorophenyl)carbonyl}amino}-2(R)-hydroxy-4-phenylbutyl}-4(R)-(4-pyridinylthio)piperidine-2(S)-carboxamide] are 5.4 nM and 340 nM.
Turning to `CC(C)(C)NC(=O)[C@@H]1C[C@H](Sc2ccncc2)CCN1C[C@@H](O)[C@H](Cc1ccccc1)NC(=O)c1cc(Cl)ccc1Cl` [Table VII, entry 7, N-tert-butyl-1-{3(S)-{{(2,5-dichlorophenyl)carbonyl}amino}-2(R)-hydroxy-4-phenylbutyl}-4(R)-(4-pyridinylthio)piperidine-2(S)-carboxamide], the 50% inhibitory concentration (IC50) at HIV protease (Table VII) came out at 9.8 nM. In test [1] (Table VII), this compound displayed an EC50 of 360 nM.
On the same counts, the results for `CC(C)(C)NC(=O)[C@@H]1C[C@H](Sc2ccncc2)CCN1C[C@@H](O)[C@H](Cc1ccccc1)NC(=O)c1c(F)cccc1F` [Table VII, entry 8, N-tert-butyl-1-{3(S)-{{(2,6-difluorophenyl)carbonyl}amino}-2(R)-hydroxy-4-phenylbutyl}-4(R)-(4-pyridinylthio)piperidine-2(S)-carboxamide] are 14 nM and 340 nM.
